According to patent US20240239801A1, “PYRIMIDO[5,4,D]PYRIMIDINE COMPOUNDS, COMPOSITIONS COMPRISING THEM AND USES THEREOF” (Université de Montréal, priority 2021, published 2024):
Like-named read-outs stand apart in the source and are kept apart here.

Assays:
HCT116 pERK = test: Phospho-ERK inhibition, AlphaLISA SureFire Ultra p-ERK 1/2; assay type: cell-based, human; settings: for HCT116 (Ymin %): lowest value of the pERK IC50 curve
Method: (§1) All cancer cell lines (A375, A101D, A2058, RKO, HT29 SK-MEL 30, IPC298, HepG2, HCT-116, Lovo, SW620, SW480, NCI-H358, NCI-H2122, Calu-6, NCIH2087, NCIH1755, NCIH1666 and Mewo) were obtained from ATCC and cultured in RPMI-1640 medium (Gibco) supplemented with 5% heat inactivated fetal bovine serum (FBS, Wisent) at 37° C. under 5% CO2. Cells were maintained in T175 flasks (Greiner). They were passaged by removing the culture medium, washing once in 10 mL of room temperature Phosphate Buffered Saline (PBS; Wisent) and incubating at 37° C. with 2 mL of 0.05% Trypsin (Thermo-Fisher). Trypsin was then inactivated by adding complete growth medium and the cells were then replated in a T175 culture dish at the appropriate dilution. All cell lines were routinely tested for mycoplasma contamination. Tissue type and mutational status of each cell line can be found in Table B.
(§2) AlphaLISA® SureFire® Ultra™ p-ERK ½ (Thr202/Tyr204) analysis was conducted on cells plated in 100 μL of complete RPMI-1640 growth medium in 96-well flat-bottomed transparent dishes (Costar) at a density indicated in Table C. Cells were maintained overnight at 37° C. under 5% CO2 before treatment with compounds' dilution series for one hour. The cell density in cells/cm^2 corresponds to cell number divided by the area of one well of a 96-well plate ([…]).
(§3) In a dilution series 100 μL/well of test substance dilution prepared in complete RPMI-1640 growth media was added to the cells. The dilution series is selected so that ten concentrations cover a range from 30 μM or 10 μM to 0.33 nM. If necessary, the initial concentration of 10 μM is increased to 100 μM or lowered to 1 μM (as in the case of A375 and NCIH1666 cells, which are generally more sensitive to the compounds) and further dilution is carried out accordingly. The final concentration of DMSO in the assay is set at 0.5%.
(§4) After treatment, media was removed, and cells were lysed in 50 μL of 1× AlphaScreen Ultra Lysis Buffer (Perkin Elmer). The AlphaLISA® SureFire® Ultra™ p-ERK ½ (Thr202/Tyr2O4) (PerkinElmer) reactions were performed with 5 μL of cell lysate according to the manufacturer's specifications in 384-well proxyplates (Perkin Elmer) followed by overnight incubation of the reactions at room temperature in a humidified chamber. After completion of the reactions, the signals were recorded on an EnVision plate reader (Perkin Elmer) using built in AlphaLISA® settings.
(§5) The effect of each compound dilution on the pERK signal was expressed in % inhibition and calculated as follows. An internal 100% inhibition control (1 μM trametinib, cat. No. HY-10999; MedChem Express; CAS No. 871700-17-3) was included in each plate and used as a measure of pERK background. First, the value obtained for trametinib was subtracted from each data point. The average of DMSO (vehicle) controls (set as 0% inhibition) was established and used to calculate % inhibition:
(§6) The ability of each compound to inhibit pERK signal was expressed as an IC50 value obtained by plotting the inhibition values for each data point of a dilution series and fitting the obtained curves using a log(agonist) versus response−variable slope (four parameters) function using GraphPadPrism (V7.0).
(§7) When present, paradoxical pERK induction is inferred from the negative % inhibition values observed in the pERK IC50 curves of a compound.

SW480 pERK = test: as above; assay type: cell-based, human; settings: for SW480 (Ymin %): lowest value of the pERK IC50 curve
Method: as §1, §2, §3, §4, §5, §6, §7

[1] = Table 3, 1 h treatment, read-out: SW480 PERK IC50
[2] = Table 2, 1 h treatment, read-out: SW480 PERK IC50 (UM)

IC50 (HCT116 pERK; Table 3, 1 h treatment) [µM]	IC50 (SW480 pERK; [1]) [µM]	IC50 (HCT116 pERK; Table 2, 1 h treatment) [µM]	IC50 (SW480 pERK; [2]) [µM]	Compound	HCT116 (Ymin %) (HCT116 pERK; Table 3) [%]	SW480 (Ymin %) (SW480 pERK; Table 3) [%]	HCT116 (Ymin %) (HCT116 pERK; Table 2) [%]	SW480 (Ymin %) (SW480 pERK; Table 2) [%]	other results
1 to 10	1 to 10			O=S(=O)(Nc1ccc(F)c(Nc2ncnc3cnc(N4CC[C@H](F)C4)nc23)c1F)c1ccc(Cl)cc1Cl [Example 61]	11	9			
1 to 10	1 to 10			CO[C@@H]1CCN(S(=O)(=O)Nc2ccc(F)c(Nc3ncnc4cnc(N5Cc6ccccc6C5)nc34)c2F)C1 [Example 67]	6	18			
1 to 10	0.5 to 1			O=S(=O)(Nc1ccc(F)c(Nc2ncnc3cnc(-n4cnc5ccccc54)nc23)c1F)N1CCC(OC(F)F)C1 (centres unmarked) [Example 78]	6	10			
1 to 10	1 to 10			O=S(=O)(Nc1ccc(F)c(Nc2ncnc3cnc(-n4cnc5ccccc54)nc23)c1F)N1CC2CC2C1 (centres unmarked) [Example 74]	−3	−7			
1 to 10	1 to 10			COc1ccc(S(=O)(=O)Nc2ccc(F)c(Nc3ncnc4cnc(N5CC(F)(F)C5)nc34)c2F)c(F)c1 [Example 50]	8	−9			
0.5 to 1	< 0.5			COc1ccc(S(=O)(=O)Nc2ccc(F)c(Nc3ncnc4cnc(-n5cnc6c(N)cccc65)nc34)c2F)c(F)c1 [Example 79]	−6	−2			
0.5 to 1	0.5 to 1			CO[C@@H]1CCN(S(=O)(=O)Nc2ccc(F)c(Nc3ncnc4cnc(-n5cnc6ccccc65)nc34)c2F)C1 [Example 59]	11	2			
1 to 10	1 to 10			CO[C@@H]1CCN(S(=O)(=O)Nc2ccc(F)c(Nc3ncnc4cnc(-n5ccc6cccnc65)nc34)c2F)C1 [Example 71]	8	−4			
1 to 10	1 to 10			COCC1CCN(S(=O)(=O)Nc2ccc(F)c(Nc3ncnc4cnc(-n5cnc6ccccc65)nc34)c2F)C1 (centres unmarked) [Example 70]	0	1			
1 to 10	1 to 10			CO[C@@H]1CCN(S(=O)(=O)Nc2ccc(F)c(Nc3ncnc4cnc(-n5ccc6ccccc65)nc34)c2F)C1 [Example 68]	17	0			
1 to 10	1 to 10			COc1ccc(S(=O)(=O)Nc2ccc(F)c(Nc3ncnc4cnc(N5CC(F)(F)C5)nc34)c2F)cc1 [Example 48]	13	6			
1 to 10	1 to 10			O=S(=O)(Nc1ccc(F)c(Nc2ncnc3cnc(-n4cnc5ccccc54)nc23)c1F)N1CCCC1 [Example 77]	−4	−4			

More lines, now with the values behind:

Compound	IC50 (HCT116 pERK; Table 3, 1 h treatment) [µM]	IC50 (SW480 pERK; [1]) [µM]	IC50 (HCT116 pERK; Table 2, 1 h treatment) [µM]	IC50 (SW480 pERK; [2]) [µM]	HCT116 (Ymin %) (HCT116 pERK; Table 3) [%]	SW480 (Ymin %) (SW480 pERK; Table 3) [%]	HCT116 (Ymin %) (HCT116 pERK; Table 2) [%]	SW480 (Ymin %) (SW480 pERK; Table 2) [%]	other results
COc1ccc(S(=O)(=O)Nc2ccc(F)c(Nc3ncnc4cnc(-n5cnc6ccccc65)nc34)c2F)cc1 [Example 36]	1 to 10	1 to 10			10	10			
CSc1ncc2ncnc(Nc3c(F)ccc(NS(=O)(=O)c4ccc(Cl)cc4C)c3F)c2n1 [Example 22]			1 to 10	1 to 10			−1	−5	
CSc1ncc2ncnc(Nc3c(F)ccc(NS(=O)(=O)N4CCCC4)c3F)c2n1 [Example 24]			10 to 30	1 to 10			10	13	
COC1CN(S(=O)(=O)Nc2ccc(F)c(Nc3ncnc4cnc(SC)nc34)c2F)C1 [Example 25]			10 to 30	10 to 30			7	−6	
COc1ccc(S(=O)(=O)Nc2ccc(F)c(Nc3ncnc4cnc(N5CC(F)C5)nc34)c2F)cc1 [Example 47]	1 to 10	1 to 10			6	−1			
CSc1ncc2ncnc(Nc3c(F)ccc(NS(=O)(=O)c4ccc(Br)cc4C)c3F)c2n1 [Example 17]			10 to 30	1 to 10			5	3	
COc1ccc(S(=O)(=O)Nc2ccc(F)c(Nc3ncnc4cnc(-n5cnc6ccccc65)nc34)c2F)c(F)c1 [Example 45]	1 to 10	1 to 10			11	−8			
N#Cc1ccccc1S(=O)(=O)Nc1ccc(F)c(Nc2ncnc3cnc(N4CC[C@H](F)C4)nc23)c1F [Example 33]	10 to 30	1 to 10			−4	13			
COc1ccc(S(=O)(=O)Nc2ccc(F)c(Nc3ncnc4cnc(-n5cnc(C)c5C)nc34)c2F)cc1 [Example 40]	1 to 10	1 to 10			12	−7			
CSc1ncc2ncnc(Nc3c(F)ccc(NS(=O)(=O)c4ccc5c(c4)CCO5)c3F)c2n1 [Example 4]			1 to 10	1 to 10			−5	−2	
CSc1ncc2ncnc(Nc3c(F)ccc(NS(=O)(=O)c4ccc(Br)cc4F)c3F)c2n1 [Example 16]			10 to 30	1 to 10			1	3	
COc1ccc(S(=O)(=O)Nc2ccc(F)c(Nc3ncnc4c(N)nc(-n5cnc(C)c5C)nc34)c2F)cc1 [Example 85]									IC50 (HCT116 pERK; Table 4, 1 h treatment): 10 to 30 µM; HCT116 (Ymin %) (HCT116 pERK; Table 4): 8%; IC50 (SW480 pERK; Table 4, 1 h treatment, read-out: SW480 PERK IC50): 1 to 10 µM; SW480 (Ymin %) (SW480 pERK; Table 4): 4%
COc1ccc(S(=O)(=O)Nc2ccc(F)c(Nc3ncnc4cnc(SC)nc34)c2F)c(OC)c1 [Example 19]			10 to 30	1 to 10			−4	4	
COc1ccc(S(=O)(=O)Nc2ccc(F)c(Nc3ncnc4cnc(-n5cnc(C)c5)nc34)c2F)cc1OC [Example 30]	1 to 10	10 to 30			−6	−5			
COc1ccc(S(=O)(=O)Nc2ccc(F)c(Nc3ncnc4cnc(SC)nc34)c2F)c(C#N)c1 [Example 7]			10 to 30	1 to 10			7	17	
COc1ccc(S(=O)(=O)Nc2ccc(F)c(Nc3ncnc4cnc(-n5cc(C)nc5C)nc34)c2F)cc1 [Example 37]	1 to 10	1 to 10			−5	−6			
COc1ccc(S(=O)(=O)Nc2ccc(F)c(Nc3ncnc4cnc(SC)nc34)c2Cl)cc1 [Example 89]									IC50 (HCT116 pERK; HCT116 cells, pERK): 10 to 30 µM; HCT116 pERK % Ymin (lowest value of the IC50 curve) (HCT116 pERK; HCT116 cells, value in brackets, Ymin above −20% = minimal or no paradoxical induction): −5%; IC50 (SW480 pERK; SW480 cells, pERK, read-out: SW480 PERK IC50): 10 to 30 µM; SW480 pERK % Ymin (lowest value of the IC50 curve) (SW480 pERK; SW480 cells, value in brackets, Ymin above −20% = minimal or no paradoxical induction): 3.5%
CSc1ncc2ncnc(Nc3c(F)ccc(NS(=O)(=O)c4ccccc4C#N)c3F)c2n1 [Example 5]			10 to 30	1 to 10			8	8	
Cc1ncn(-c2ncc3ncnc(Nc4c(F)ccc(NS(=O)(=O)c5ccccc5C#N)c4F)c3n2)c1C [Example 34]	10 to 30	1 to 10			−3	−2.0			
CSc1ncc2ncnc(Nc3c(F)ccc(NS(=O)(=O)c4ccc(F)cc4C#N)c3F)c2n1 [Example 10]			10 to 30	1 to 10			9	−9	
